Seven compounds from ChEMBL document CHEMBL6071172, “Addressing the Intracellular Vestibule of the Plasmodial Lactate Transporter PfFNT by p-Substituted Inhibitors Amplifies In Vitro Activity” (J Med Chem, 2024) can be followed below.

The source made the active and inactive calls. No cut-off for these calls is given here.

Series [1] in a line: Dissociation constant, pKa of compound. It counts as physicochemical.
The next series concerns Plasmodium berghei. Briefly: Antiplasmodial activity against Plasmodium berghei ANKA infected in malarial mouse model assessed as elimination of parasitemia at 3 to 30 mg/kg/day, po administered for 4 days by flow cytometric analysis relative to control. The series is classed as functional. The settings on record: dose 3-30 mg/kg/day, time 4 day.
Series [2] in a line: Metabolic stability in pooled human liver microsomes assessed as intrinsic clearance at 1 uM by LC-MS/MS analysis. Conditions: read-out: CLH. It counts as ADME, Microsome.
A short description of series [3]: Binding affinity to C-terminal GFP tagged Plasmodium falciparum FNT extracted from HEK293 cell membrane assessed as inhibition constant measured 10 times for 5 sec in presence of BH267.meta-DY647 tracer by fluorescence cross-correlation spectroscopic analysis. It counts as cell membranes.
The nature of series [4]: Inhibition of Plasmodium falciparum FNT extracted from Saccharomyces cerevisiae W303-1A jen1 delta ady2 delta assessed as reduction in [1-14C]-L-lactate uptake preincubated for 20 mins followed by substrate addition by TriCrab liquid scintillation counter.
Series [5] relates to Plasmodium falciparum. The series can be described thus: Antiplasmodial activity against Plasmodium falciparum 3D7 infected in erythrocytes assessed as inhibition of parasite growth at 50 nM incubated for 48 hrs with media replenishment with compound after 24 hrs by LSR II FACS analysis relative to control. It counts as functional. Conditions: 3D7, Erythrocyte.
Series [6] deals with Plasmodium falciparum. The series can be described thus: Antiplasmodial activity against Plasmodium falciparum 3D7 infected in SCID mouse model assessed as decrease in parasite load at 150 mg/kg/day, po administered for 4 days. The series is classed as functional, organism-based. Conditions: time 4.0 day.
For series [7], the system named is HepG2. The series can be described thus: Cytotoxicity against human HepG2 cells assessed as change in redox capability of cytosol upto 100 uM by CellTiter-Glo assay. It counts as toxicity, cell-based.
Series [8] is described as follows: Half-life in SCID mouse model infected with plasmodium falciparum 3D7 at 50 mg/kg/day, po administered for 4 days. It counts as ADME, organism-based. Conditions: in vivo, time 4 day.
In series [9] the test system is HEK293. Briefly: Cytotoxicity against HEK293 cells assessed as change in ATP level upto 100 uM by CellTiter-Glo assay. It counts as toxicity, cell-based. The settings on record: human, hek293, 100 µM.
Series [10] can be described thus: Drug concentration in blood of SCID mouse model infected with plasmodium falciparum 3D7 at 50 mg/kg/day, po administered for 4 days. It counts as ADME, organism-based. The settings on record: time 4 day, read-out: Ct.
In series [11] the test system is HEK293. The series can be described thus: Cytotoxicity against HEK293 cells assessed as reduction in nuclei count at >10 uM by Hoechst 33342 staining based microscopic analysis. The series is classed as toxicity, cell-based. The settings on record: human, hek293, 10 µM.
In series [12] the test system is HepG2. The series can be described thus: Cytotoxicity against human HepG2 cells assessed as reduction in nuclei count at >10 uM by Hoechst 33342 staining based microscopic analysis. It counts as toxicity, cell-based. The settings on record: hepg2, 10 µM.
Series [13] deals with HEK293. The series can be described thus: Cytotoxicity against HEK293 cells assessed as change in redox capability of cytosol upto 100 uM by resazurin dye based fluorescence microplate reader. The series is classed as toxicity, cell-based. The settings on record: human.
For series [14], the system named is HepG2. Briefly: Cytotoxicity against human HepG2 cells assessed as change in ATP level upto 100 uM by CellTiter-Glo assay. It counts as toxicity, cell-based. Conditions: hepg2, 100 µM.
In series [15] the test system is Plasmodium falciparum. Briefly: Antiplasmodial activity against Plasmodium falciparum 3D7 infected in erythrocytes incubated for 48 hrs with media replenishment with compound after 24 hrs by LSR II FACS analysis. It counts as functional, organism-based. The settings on record: 3D7, Erythrocyte.

Consider `FC(F)(F)C(F)(F)c1cc(-c2cccnc2)n[nH]1`, for which, in series [1], the pKa turned out to be 10.

Consider `O=C(/C=C(\O)C(F)(F)C(F)(F)F)c1cccnc1`, for which, in the series with Plasmodium berghei, the Activity was greater than 99.7%. Also, the CLint scaled at 1 µM in [2] turned out to be 3.98 mL/min/kg.

As to `COc1ccc(C(=O)/C=C(\O)C(F)(F)C(F)(F)F)c(O)c1`, the Ki in [3] was 83 nM. Further, the IC50 in series [4] came to 170 nM. Further, in the series on Plasmodium falciparum [5], the inhibition at 0.05 µM was less than 10%.

In the case of `FC(F)(F)C(F)(F)c1nc(-c2cccnc2)n[nH]1`, the pKa in series [1] was determined as 8.

Turning to `CCCNc1ccc(C(=O)/C=C(\O)C(F)(F)C(F)(F)F)cn1`, in the series on Plasmodium falciparum [6], the result was Active. For the same compound, the Activity entry in the series with HepG2 [7], with HEK293 [9], with HEK293 [11], with HepG2 [12], in the series with HEK293 [13] and with HepG2 [14] was “Non-Toxic” throughout. In [8], this compound had a half-life of 2 h. In addition, the concentration at 96 h in series [10] was roughly 2000 ng/mL. In [2], the CLint scaled at 1 µM is 462 mL/min/kg.

For `CC(=O)Nc1ccc(C(=O)/C=C(\O)C(F)(F)C(F)(F)F)cn1`, the Activity result in the series on HepG2 [7], in the series on HEK293 [9], in the series on HEK293 [11], in the series on HepG2 [12], with HEK293 [13] and in the series on HepG2 [14] was “Non-Toxic” each time. In addition, in the series with Plasmodium falciparum [15], the EC50 is less than 100 nM. Moreover, in series [2], the CLint scaled at 1 µM came to 10.6 mL/min/kg.

As for `O=C(/C=C(\O)C(F)(F)C(F)(F)F)c1ccc(NCc2ccccc2)nc1`, the EC50 in the series on Plasmodium falciparum [15] is less than 100 nM.
